Reference: US20250136722A1, “CYTOTOXICITY TARGETING CHIMERAS” (GLAXOSMITHKLINE INTELLECTUAL PROPERTY DEVELOPMENT LIMITED, priority 2021, published 2025)

Key:
[1] = system: CCR2+ expressing cells; assay: Alternative dosing strategy of ARM compound to anti-cotinine antibody, blood concentration and CCR2+ cell depletion (Example 206); type: in vivo; details: co-dosing vs sequential dosing with anti-cotinine antibody, intravenously
Description: FIGS. 3A-3B: Alternative dosing strategy of small molecule ARM compound to anti-cotinine antibody, as described in Example 206, with anti-cotinine antibody and small molecule ARM compound (Example 1) co-dosed or sequentially dosed intravenously;
FIG. 5: Alternative dosing strategy of small molecule ARM compound to anti-cotinine antibody, as described in Example 206, with anti-cotinine antibody administered intravenously and ARM compound (Example 1) administered subcutaneously following a 2-hour delay from antibody dosing at various molar ratios of small molecule ARM: antibody; data shown is blood concentration of small molecule ARM compound at various timepoints following administration.

[2] = system: CCR2 expressing cells (CD11b+Ly6c+ Hi) in peripheral blood; assay: In vivo depletion assay, flow cytometry of peripheral blood (Example 201); parameters: species or system Human CCR2 (hCCR2) knock-in mice (C57 background); details: hCCR2 knock-in mice; IV 0.1 mpk compound + 10 mpk anti-cotinine antibody (SEQ ID NO: 13/14); peripheral blood at 48 hr
Experimental: Stock solution preparation: Stock solutions of compounds of Formula (I) were prepared at 20 mg/mL and 100 mg/mL in DMSO for PK/PD and dose tolerability studies respectively. Stock solutions were stored at −20° C. until further usage.
Formulations preparation: On the day of experiment, the stock solution of the compound of Formula (I) was removed from storage at −20° C. and thawed at room temperature. Anti-cotinine antibody having a heavy chain sequence of SEQ ID NO: 13 and a light chain sequence of SEQ ID NO: 14 (rabbit variable region sequence with mouse IgG2a Fc domain), if required was removed from storage at −80° C. and thawed at room temperature. Antibody vials were immediately transferred into wet ice after thawing. Compounds of Formula (I) were further diluted in DMSO as per experimental requirements.
Formulation composition: The formulation composition was Saline:DMSO:PBS. Saline was added based on the quantity required and then stock solution of the compound of Formula (I) prepared in DMSO, followed by addition of antibody in PBS. Formulations were incubated at room temperature for 30 minutes before administration to the mouse. DMSO was used at 1 to 2% (v/v) in the final formulation.
After bleeding, each mouse was sacrificed by cervical dislocation.
CCR2 depletion in peripheral blood was determined by flow cytometry. Briefly, peripheral blood was collected from all animals at the end of study termination and processed. Blood samples were lysed using 1× RBC Lysis buffer and the resulting cell pellet was washed twice in FACS buffer (HBSS containing 5% FBS). Cells were subjected to Fc blocking using mouse Fc block from Biolegend (Trustain, anti-mouse CD16/32, Cat: 101319) to block non-specific binding followed by surface staining for immune markers (CD45, CD3, CD11b, Ly6C, human CCR2). Surface staining was done for 30 minutes in ice and cells were washed twice to remove unbound antibodies. Cells were stained with 7AAD to determine viability and acquired on BD FACSVerse flow cytometer. Appropriate FMO controls and single-color controls were included in the experiment for gating and compensation respectively.
Percent depletion of CD11b+Ly6c+ Hi cells and CCR2 expression for the different treatment groups was determined.

Compound	PD (percent depletion of CCR2+ expressing cells) [1]	PK (blood concentration of small molecule ARM compound) [1]	% Depletion of CCR2 expressing cells [2] [%]
CC(C)N(C)[C@@H]1CC[C@H](N2CC[C@H](Nc3ncnc4ccc(C(F)(F)F)cc34)C2=O)[C@H](NC(=O)[C@H]2CC[C@H](NC(=O)CCCO[C@H]3CC[C@H](OCCNC(=O)[C@H]4CC(=O)N(C)[C@@H]4c4cccnc4)CC3)CC2)C1 [Example 1, (2S,3S)-N-(2-(((1R,4S)-4-(4-(((1R,4R)-4-(((1R,2S,5R)-5-(Isopropyl(methyl)amino)-2-((S)-2-oxo-3-((6-(trifluoromethyl)quinazolin-4-yl)amino)pyrrolidin-1-yl)cyclohexyl)carbamoyl)cyclohexyl)amino)-4-oxobutoxy)cyclohexyl)oxy)ethyl)-1-methyl-5-oxo-2-(pyridin-3-yl)pyrrolidine-3-carboxamide]	unchanged	unchanged	–
CN1C(=O)C[C@H](C(=O)NCCOCCOCCOCCOCCOCCC(=O)N[C@@H]2C[C@H](NC(C)(C)C)CC[C@@H]2N2CC[C@H](Nc3ncnc4ccc(C(F)(F)F)cc34)C2=O)[C@H]1c1cccnc1 [Example 37]	–	–	75
CN1C(=O)C[C@H](C(=O)NCCOCCOCCOCCOCCOCCOCCC(=O)N[C@@H]2C[C@H](NC(C)(C)C)CC[C@@H]2N2CC[C@H](Nc3ncnc4ccc(C(F)(F)F)cc34)C2=O)[C@H]1c1cccnc1 [Example 38]	–	–	84.55
